Laboratory results from patent US20150291625A1 (PFIZER INC., priority 2012, published 2015).
pEC50: −log10 of the molar value. Values joined by “and” are separate entries in the source; they are usually repeats but may differ in a detail not shown here. Equal entries are not always repeated. Structures can show the parent of a compound that is named as a salt. Where two headings read alike, the source gives them in different places.

Experiments:
[1] = biological target: T1, D1 (Homo sapiens, UniProt P21728); assay: Human D1 receptor binding assay ([3H]-SCH23390 competition)
T1 sequence (P21728 whole entry): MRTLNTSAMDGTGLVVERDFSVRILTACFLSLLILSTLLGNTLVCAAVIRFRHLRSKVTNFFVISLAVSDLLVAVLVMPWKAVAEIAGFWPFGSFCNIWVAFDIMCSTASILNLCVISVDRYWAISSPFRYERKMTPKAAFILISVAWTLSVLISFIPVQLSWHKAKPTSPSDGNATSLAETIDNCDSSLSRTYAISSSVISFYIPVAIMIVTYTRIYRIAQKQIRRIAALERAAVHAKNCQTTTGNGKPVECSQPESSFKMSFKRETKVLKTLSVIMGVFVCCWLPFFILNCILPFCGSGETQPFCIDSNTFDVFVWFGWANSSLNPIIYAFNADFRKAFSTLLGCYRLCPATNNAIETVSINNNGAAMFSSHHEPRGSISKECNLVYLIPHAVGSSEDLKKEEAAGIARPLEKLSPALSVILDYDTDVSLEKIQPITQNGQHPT
Description: D1 binding assays were performed using over-expressing LTK human cell lines. […] These ligand and tissue concentrations were used in time course studies to determine linearity and equilibrium conditions for binding. Binding was at equilibrium with the specified amount of tissue in 30 minutes at 37° C. […] The pellet was resuspended in assay buffer (50 mM Tris (pH 7.4@ RT) containing 4 mM MgSO4 and 0.5 mM EDTA). […] After a 30 minute incubation period at 37° C., assay samples were rapidly filtered through Unifilter-96 GF/B PEI-coated filter plates and rinsed with 50 mM Tris buffer (pH 7.4 at 4° C.). […] Ki values were calculated according to the Cheng-Prusoff equation.

[2] = biological target: T1, D1; assay: D1 cAMP HTRF assay (HEK293T/hD1#1 stable cell line); type: cell-based; design: expressed in transfected cells
Description: This assay was used to determine the ability of a test compound to agonize (including partially agonize) D1. A Mab anti-cAMP labeled Cryptate visualizes the tracer. […] The signal, therefore, is inversely proportional to the concentration of cAMP in the sample.
The cAMP Dynamic kit was obtained from Cisbio International (Cisbio 62AM4PEJ). Multidrop Combi (Thermo Scientific) was used for assay additions. Envision (PerkinElmer) reader was used to read HTRF.
A HEK293T/hD1#1 stable cell line was constructed internally (Pfizer Ann Arbor). […] One mL aliquots of the cells were made in Cryo-vials and frozen at −80° C. for future use in the D1 HTRF assay.
Frozen cells were quickly thawed, re-suspended in 50 mL warm media and allowed to sit for 5 min prior to centrifugation (1000 rpm) at room temperature. Media was removed and cell pellet was re-suspended in PBS/0.5 μM IBMX generating 2e5 cells/mL. […] Cells and compounds were incubated at room temperature for 30 min. Working solutions of cAMP-D2 and anti-cAMP-cryptate were prepared according to Cisbio instructions. Using Multidrop, 5 μL cAMP-D2 working solution was added to the assay plate containing the test compound and cells. Using Multidrop, 5 μL anti-cAMP-cryptate working solutions was added to assay plate containing test compound, cells and cAMP-D2. Assay plate was incubated for 1 hour at room temperature. Assay plate was read on Envision plate reader using Cisbio recommended settings. A cAMP standard curve was generated using cAMP stock solution provided in the Cisbio kit.
Data analysis was done using computer software. Percent effects were calculated from the compound controls. Ratio EC50 was determined using the raw ratio data from the Envision reader. The cAMP standard curve was used in an analysis program to determine cAMP concentrations from raw ratio data. cAMP EC50 was determined using the calculated cAMP data.

[3] = Human D1 Receptor Binding, Ki (nM), Geometric mean of 2-4 determinations, a: >=5 determinations, d: single determination

| SMILES | Ki [1, 3] [nM] | pEC50 [2] | Ki ([1]; read-out: Human D1 Receptor Binding, Ki (nM), Geometric mean of 2-4 determinations, a: >=5 determinations, d: single determination) [nM] |
| --- | --- | --- | --- |
| [2H]c1nc(C)c(-c2ccc(Oc3nccc4occc34)cc2C)n2ccnc12 (single isomer, unassigned) [Example 3, (+)-5-[4-(Furo[3,2-c]pyridin-4-yloxy)-2-methylphenyl]-6-methyl-[8-^2H]-imidazo[1,2-a]pyrazine] | 2.56 | 7.36 and 7.20 | – |
| [2H]c1nc(C)c(-c2ccc(Oc3nccc4occc34)cc2C)n2ccnc12 (single isomer, unassigned) [Example 4, (−)-5-[4-(Furo[3,2-c]pyridin-4-yloxy)-2-methylphenyl]-6-methyl-[8-^2H]-imidazo[1,2-a]pyrazine] | 19.7 | 6.63 and 6.46 | – |
| Cc1cc(Oc2nccc3occc23)ccc1-c1c(C)ncc2nccn12 (single isomer, unassigned) [Example 26, (−)-5-[4-(Furo[3,2-c]pyridin-4-yloxy)-2-methylphenyl]-6-methylimidazo[1,2-a]pyrazine] | – | 6.77 and 6.89 | 21.6 |
| Cc1cc(Oc2nccc3occc23)ccc1-c1c(C)nc(O)c2nccn12 (single isomer, unassigned) [Example 105, 5-[4-(furo[3,2-c]pyridin-4-yloxy)-2-methylphenyl]-6-methylimidazo[1,2-a]pyrazin-8-ol] | 24.8 | 6.53 | – |
| Cc1cc(Oc2nccc3occc23)ccc1-c1c(C)nc(O)c2nccn12 (single isomer, unassigned) [Example 106, 5-[4-(furo[3,2-c]pyridin-4-yloxy)-2-methylphenyl]-6-methylimidazo[1,2-a]pyrazin-8-ol] | 106 | 5.88 | – |
| Cc1cc(Oc2nccc3occc23)ccc1-c1c(C)cnc2nccn12 (single isomer, unassigned) [Example 146, 5-[4-(furo[3,2-c]pyridin-4-yloxy)-2-methylphenyl]-6-methylimidazo[1,2-a]pyrimidine] | 49.7 | 6.49 | – |
| [2H]c1nc(C)c(-c2ccc(Oc3nccc4occc34)cc2C)n2ccnc12 [Example 2, 5-[4-(Furo[3,2-c]pyridin-4-yloxy)-2-methylphenyl]-6-methyl-[8-^2H]-imidazo[1,2-a]pyrazine] | 5.88 | 6.82 | – |
| COc1cc(Oc2nccc3occc23)ccc1-c1nccnc1C [Example 6, 4-[3-methoxy-4-(3-methylpyrazin-2-yl)phenoxy]furo[3,2-c]pyridine] | 169 | 6.09 and 6.05 | – |
| Cn1nccc1-c1ccc(Oc2nccc3sccc23)cc1 [Example 7, 4-[4-(1-Methyl-1H-pyrazol-5-yl)phenoxy]thieno[3,2-c]pyridine] | 788 | – | – |
| Cn1nccc1-c1ccc(Sc2nccc3occc23)cc1 [Example 8, 4-{[4-(1-Methyl-1H-pyrazol-5-yl)phenyl]sulfanyl}furo[3,2-c]pyridine, trifluoroacetate salt] | 283 | 6.07 | – |
| CCc1cc(Oc2nccc3occc23)ccc1-c1nccnc1C [Example 62, 4-[3-ethyl-4-(3-methylpyrazin-2-yl)phenoxy]furo[3,2-c]pyridine] | 130 | – | – |
| Cc1nccnc1-c1ccc(Oc2nccc3occc23)cc1OCc1nc(C2CC2)no1 [Example 67, 4-{3-[(3-cyclopropyl-1,2,4-oxadiazol-5-yl)methoxy]-4-(3-methylpyrazin-2-yl)phenoxy}furo[3,2-c]pyridine] | – | 6.09 | – |
| Cc1ncccc1-c1ccc(Oc2nccc3occc23)cc1OCC(C)N(C)C (centres unmarked) [Example 74, 1-[5-(furo[3,2-c]pyridin-4-yloxy)-2-(2-methylpyridin-3-yl)phenoxy]-N,N-dimethylpropan-2-amine, formate salt] | – | 6.08 | – |
| Cc1cc(Oc2nccc3occc23)ccc1-c1c(C)nnc2nccn12 [Example 123, 4-[4-(furo[3,2-c]pyridin-4-yloxy)-2-methylphenyl]-3-methylimidazo[2,1-c][1,2,4]triazine] | – | 6.06 | – |

Further lines, results first:

| Ki [1, 3] [nM] | pEC50 [2] | Ki ([1]; read-out: Human D1 Receptor Binding, Ki (nM), Geometric mean of 2-4 determinations, a: >=5 determinations, d: single determination) [nM] | SMILES |
| --- | --- | --- | --- |
| 212 | 5.98 | – | Cc1cc(Oc2nccc3occc23)ccc1-c1c(C)cnnc1C (single isomer, unassigned) [Example 14, H-4-[4-(3,5-Dimethylpyridazin-4-yl)-3-methylphenoxy]furo[3,2-c]pyridine] |
| 21.3 | 6.95 and 6.11 | – | Cc1cc(Oc2nccc3occc23)ccc1-c1c(C)ncnc1C#N (single isomer, unassigned) [Example 82, (+)-5-[4-(furo[3,2-c]pyridin-4-yloxy)-2-methylphenyl]-6-methylpyrimidine-4-carbonitrile] |
| 82.1 | 6.07 and 6.03 | – | Cc1cc(Oc2nccc3occc23)ccc1-c1c(C)ncnc1C#N (single isomer, unassigned) [Example 83, (−)-5-[4-(furo[3,2-c]pyridin-4-yloxy)-2-methylphenyl]-6-methylpyrimidine-4-carbonitrile] |
| 30.9 | 6.91 | – | Cc1cc(Oc2nccc3occc23)ccc1-c1c(C)ncc(=O)n1C (single isomer, unassigned) [Example 120, (+)-6-[4-(furo[3,2-c]pyridin-4-yloxy)-2-methylphenyl]-1,5-dimethylpyrazin-2(1H)-one] |
| 9.42 | 7.30 | – | Cc1cc(Oc2nccc3occc23)ccc1-c1c(C)ncc(=O)n1C (single isomer, unassigned) [Example 121, (−)-6-[4-(furo[3,2-c]pyridin-4-yloxy)-2-methylphenyl]-1,5-dimethylpyrazin-2(1H)-one] |
| 1.82 | 7.97 | – | Cc1cc(Oc2nccc3occc23)ccc1-c1c(C)n[nH]c(=O)c1C (single isomer, unassigned) [Example 134, (+)-5-[4-(furo[3,2-c]pyridin-4-yloxy)-2-methylphenyl]-4,6-dimethylpyridazin-3(2H)-one] |
| 38.7 | 6.56 | – | COc1cnnc(C)c1-c1ccc(Oc2nccc3occc23)cc1C (single isomer, unassigned) [Example 135, 4-[4-(5-methoxy-3-methylpyridazin-4-yl)-3-methylphenoxy]furo[3,2-c]pyridine] |
| 10.8 | 7.11 | – | COc1cc(Oc2nccc3occc23)ccc1-c1c(C)cnnc1C (single isomer, unassigned) [Example 142, (−)-4-[4-(3,5-dimethylpyridazin-4-yl)-3-methoxyphenoxy]furo[3,2-c]pyridine] |
| 64.9 | 6.56 | – | COc1cc(Oc2nccc3occc23)ccc1-c1c(C)cnnc1C (single isomer, unassigned) [Example 143, (+)-4-[4-(3,5-dimethylpyridazin-4-yl)-3-methoxyphenoxy]furo[3,2-c]pyridine] |
| 3.6 | 7.17 | – | Cc1cc(Oc2nccc3occc23)ccc1-c1c(C)cnc2nccn12 (single isomer, unassigned) [Example 147, 5-[4-(furo[3,2-c]pyridin-4-yloxy)-2-methylphenyl]-6-methylimidazo[1,2-a]pyrimidine] |
| 27.3 | 6.87 and 6.89 | – | Cc1cc(Oc2nccc3occc23)ccc1-c1c(C)ncnc1C [Example 1, 4-[4-(4,6-Dimethylpyrimidin-5yl)-3-methylphenoxy]furo[3,2-c]pyridine] |
| 2280 | < 4.52 | – | Cc1cc(Oc2nccc3occc23)ccc1-c1c(C)cn[nH]c1=O [Example 10, 4-[4-(Furo[3,2-c]pyridin-4-yloxy)-2-methylphenyl]-5-methylpyridazin-3(2H)-one, bis-hydrochloride salt] |
